Laboratory results taken from US20100216876A1, “ANTIDIARRHETIC COMPOSITION, PRODUCT CONTAINING THE SAME AND METHOD OF PREVENTING DIAHHREA” (priority 2007, published 2010).

Test system: intestinal Cl− secretion
Experiment: Short-circuit current (Isc) measurement of cecum mucosa sample in Ussing chamber after forskolin
Type: cell-based, mouse
Protocol: A sample of large-intestinal mucosa was prepared in the following manner. A mouse was killed by cervical vertebra dislocation. After abdominal incision, the cecum was excised by cutting the boundary parts of the cecum with the small intestine and the large intestine. The cecum was cut open with scissors into a sheet. In order to completely remove the contents of the cecum, the cecum was pinched with tweezers and washed with a buffered solution. Then, a substitution fluid was placed in a petri dish covered with rubber, and the cecum was attached thereon with the serosa side up. Under conditions in which the buffered solution-in the petri dish was always aerated with 95% O2/5% CO2, the muscle layer was peeled using tweezers, and a sample composed of mucosa and submucosa was produced. The sample was divided into four pieces for the experiment.
Electrical analysis was carried out using this sample. FIG. 1 is a diagram showing an embodiment of measurement of short-circuit current (Isc) in Ussing chamber. The mucosa sample was placed between two Ussing-type chambers (window area: 0.2 cm^2) containing 5 ml of buffered solution. For the measurement of the electrical potential difference, a pair of calomel electrodes was connected to each chamber through a 1MKCl/2% agar salt bridge. For passing current, Ag/AgGl electrodes connected through a 1MNaCl/2% agar salt bridge were mounted. These electrodes were connected to a voltage clamp apparatus, and the short-circuit current (Isc) was measured. As for Isc, the current flowing from the mucosa side to the serosa side was positive.
The solutions to be administered were prepared as stock solutions so that the concentration of each solution was 1,000 times higher than the desired final concentration.

[1] = 20 μM on the serosa side after forskolin
[2] = 50 μM on the serosa side after forskolin

| Structure (SMILES) | Isc decrease [1] | Isc decrease [2] | Isc decrease (150 μM on the serosa side after forskolin) | action on Isc compared with menthol [1] | dose dependence of the Isc inhibitory effect (serosa side after forskolin) |
| --- | --- | --- | --- | --- | --- |
| CC(C)[C@@H]1CC[C@@H](C)C[C@H]1OCCCO | about 50 μA/cm^2 | about 70 μA/cm^2 |  |  |  |
| CC(C)[C@@H]1CC[C@@H](C)C[C@H]1OCCO [2-(l-menthoxy)ethanol] | about 10 μA/cm^2 |  | about 70 μA/cm^2 |  |  |
| CC(C)[C@@H]1CC[C@@H](C)C[C@H]1OCC(C)(O)CO (stereo partly drawn) [2-methyl-3-(l-menthoxy)propane-1,2-diol] | about 100 μA/cm^2 |  |  | almost equal to the administration of 500 μM of menthol | dose dependence was observed at doses up to 50 μM |
| CC1CCC(C(C)C)C(OCC(O)CO)C1 (stereo not drawn) [3-(l-menthoxy)propane-1,2-diol] | about 50 μA/cm^2 | about 70 μA/cm^2 |  |  |  |
